From ChEMBL document CHEMBL1201862, “PubChem BioAssay data set” (2004)
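Five concentrations, 48 hours, 96-well plates. At the GI50, growth is halved.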 Active and inactive are the calls of the source. Rule as the data show it: active = GI50 up to about 1.1 µM and inactive = higher.

How the values were obtained:
Test in all cases: inhibition of tumour cell growth, NCI panel, 48 h
OVCAR-4 = system: OVCAR-4
OVCAR-3 = system: OVCAR-3
MDA-N = system: MDA-N
SK-MEL-5 = system: SK-MEL-5
SK-MEL-28 = system: SK-MEL-28
U-251 = system: U-251
SW-620 = system: SW-620
MOLT-4 = system: MOLT-4
M14 = system: M14
RXF 393 = system: RXF 393
K562 = system: K562
CCRF-CEM = system: CCRF-CEM
ACHN = system: ACHN
SK-MEL-2 = system: SK-MEL-2
SN12C = system: SN12C
IGROV-1 = system: IGROV-1
EKVX = system: EKVX
NCI/ADR-RES = system: NCI/ADR-RES
UACC-257 = system: UACC-257
SF-268 = system: SF-268
SF-539 = system: SF-539
HT-29 = system: HT-29
Malme-3M = system: Malme-3M
RPMI-8226 = system: RPMI-8226
SR = system: SR
BT-549 = system: BT-549
HCT-15 = system: HCT-15
A549 = system: A549
COLO 205 = system: COLO 205
UACC-62 = system: UACC-62
SF-295 = system: SF-295
SK-OV-3 = system: SK-OV-3
HCT-116 = system: HCT-116
A498 = system: A498
CAKI-1 = system: CAKI-1
MDA-MB-231 = system: MDA-MB-231
HOP-62 = system: HOP-62
UO-31 = system: UO-31
OVCAR-5 = system: OVCAR-5
PC-3 = system: PC-3
NCI-H522 = system: NCI-H522
NCI-H23 = system: NCI-H23
HCC 2998 = system: HCC 2998
OVCAR-8 = system: OVCAR-8
HL-60 = system: HL-60
MCF7 = system: MCF7
TK-10 = system: TK-10
SNB-19 = system: SNB-19
LOX IMVI = system: LOX IMVI
DU-145 = system: DU-145
MDA-MB-435 = system: MDA-MB-435
786-0 = system: 786-0
KM12 = system: KM12

## COC(=O)[C@H](NC(=O)OC(C)(C)C)[C@H]1COC(C)(C)O1
OVCAR-4
  GI50: > 100 µM (inactive)
OVCAR-3
  GI50: > 100 µM (inactive)
MDA-N
  GI50: > 100 µM (inactive)
SK-MEL-5
  GI50: > 100 µM (inactive)
SK-MEL-28
  GI50: > 100 µM (inactive)
U-251
  GI50: > 100 µM (inactive)
SW-620
  GI50: > 100 µM (inactive)
MOLT-4
  GI50: > 100 µM (inactive)
M14
  GI50: > 100 µM (inactive)
RXF 393
  GI50: > 100 µM (inactive)
K562
  GI50: > 100 µM (inactive)
CCRF-CEM
  GI50: > 100 µM (inactive)
ACHN
  GI50: > 100 µM (inactive)
SK-MEL-2
  GI50: > 100 µM (inactive)
SN12C
  GI50: > 100 µM (inactive)
IGROV-1
  GI50: > 100 µM (inactive)
EKVX
  GI50: > 100 µM (inactive)
NCI/ADR-RES
  GI50: > 100 µM (inactive)
UACC-257
  GI50: > 100 µM (inactive)
SF-268
  GI50: > 100 µM (inactive)
SF-539
  GI50: > 100 µM (inactive)
HT-29
  GI50: > 100 µM (inactive)
Malme-3M
  GI50: 40.1 µM (inactive)
RPMI-8226
  GI50: > 100 µM (inactive)
SR
  GI50: > 100 µM (inactive)
BT-549
  GI50: > 100 µM (inactive)
HCT-15
  GI50: > 100 µM
A549
  GI50: > 100 µM (inactive)
COLO 205
  GI50: > 100 µM (inactive)
UACC-62
  GI50: > 100 µM (inactive)
SF-295
  GI50: > 100 µM (inactive)
SK-OV-3
  GI50: > 100 µM (inactive)
HCT-116
  GI50: > 100 µM (inactive)
A498
  GI50: > 100 µM (inactive)
CAKI-1
  GI50: > 100 µM (inactive)
MDA-MB-231
  GI50: > 100 µM (inactive)
HOP-62
  GI50: > 100 µM (inactive)
UO-31
  GI50: > 100 µM (inactive)
OVCAR-5
  GI50: > 100 µM (inactive)
PC-3
  GI50: > 100 µM (inactive)
NCI-H522
  GI50: > 100 µM (inactive)
NCI-H23
  GI50: > 100 µM (inactive)
HCC 2998
  GI50: > 100 µM (inactive)
OVCAR-8
  GI50: > 100 µM (inactive)
HL-60
  GI50: > 100 µM (inactive)
MCF7
  GI50: > 100 µM (inactive)
TK-10
  GI50: > 100 µM (inactive)
SNB-19
  GI50: > 100 µM (inactive)
LOX IMVI
  GI50: > 100 µM (inactive)
DU-145
  GI50: > 100 µM (inactive)
MDA-MB-435
  GI50: > 100 µM (inactive)
786-0
  GI50: > 100 µM (inactive)
KM12
  GI50: > 100 µM (inactive)
